Consider 10 compounds from US4778799A, “Synergistic combination of flupirtin and non-steroidal antiphlogistic” (priority 1985, dated 1988).

The nature of series [1]: Acetic Acid-Writhing Test according to Koster et al., analgetic activity, per os. The series is classed as in vivo, white mouse (NMRI-Mouse). Particulars: for factor for the increase in activity of the analgetic action in combination with Flupirtin: compared to analgetic side activity component of the pure antiphlogistic; for ED50: 0.5 h, substance alone, 30 minutes after giving, linear regression; for inhibition in vivo at 3 mg/kg: 3.0 mg/kg per os; for inhibition in vivo at 5 mg/kg: 5.0 mg/kg per os; for inhibition in vivo at 6 mg/kg: 6.0 mg/kg per os; for inhibition in vivo at 10 mg/kg: 10.0 mg/kg per os. Here is the method: These investigations were carried out in the Acetic Acid Test (Writhing Test) on the white mouse.
Writhing According to Koster et al; Fed.
(§1) Animal: White Mouse (NMRI-Mouse); Application: per os
Writhing Test According to Koster et al.: Fed.
as §1
The pain reaction is expressed as a characteristic stretching of the animals ("writhing syndrome") which persists in irregular time intervals for a long period of time after the injection of the acetic acid. The dosage dependent suppression of the frequency of the stretching motion compared to an untreated control group is expressed in percent as analgetic effect. The evaluation is carried out by determination of the ED50 (Method of Linear Regression).
The acetic acid test is marked by the fact that not only is there detectable the effect of strong, central acting analgetics but also preponderantly peripherally acting analgetics-antipyretics and antiphlogistically active pharmaceuticals such as phenyl butazone, Indometacin and others. Therewith the effect in this procedure refers to a peripheral component of the analgesic.
For orientation: In writhing tests, fewer writhes than in controls are read as antinociception.

Series [2] can be described thus: Randall-Selitto Test, inflammation pain, per os. It is filed as in vivo, albino rat (Sprague-Dawley). The conditions noted are these: for ED50: Rattus norvegicus, po, 0.5 h. The procedure:
Randall-Selitto-Test According to Randall, Selitto, Arch. int.
Animal: Albino-Rat (Sprague-Dawley); Application: per os
Sucker, Fuchs, Speiser, Pharmazeutische Technologie, Thieme-Verlag, Stuttgart, 1978. Short Description of the Pharmacological Test Methods Mentioned in the Application Randall-Selitto-Test (Inflammation Pain on the Rat)
In accordance with the method of Randall and Selitto (L. O. Randall, J. J. Selitto, Arch. int. Pharmacodyn., Volume 111, pages 409-418, 1957) rats were injected subplantarly with […] of a 20% (in dimineralized water) brewer's yeast suspension in the right hind paw. 21/2 hours later the test materials were dispensed and 30 minutes later the swelling pain measured with an Algesiemeter as pressure (in grams) on the inflamed paw (apparatus of Ugo Basile, Milan, Italy). As criteria there are considered the defensive reaction of the animals drawing the paw away and/or freeing themselves from the grip of the experimenters. The effect of the material was determined from the increase of the swelling pain compared to the untreated control group. The experimental procedure different from the original method in that the materials were applied 21/2 hours after the setting of edema and not simultaneously therewith. In this way there should be prevented the development of edema, being checked by a possible antiphlogistic action and the analgesy superimposed or simulated.
The ED50 was determined by means of the method of linear regression.

Series [3] can be described thus: Bradykinin-Edema Test, antiphlogistic activity, per os. The conditions noted are these: alone. It is filed as in vivo, albino rat (Sprague-Dawley). The procedure: Bradykinin-Edema-Test Relying On and Modification of the Method of
Morsdorf et al (Arch. int. Pharmacodyn. 192,111-127 (1971). Animal:
Albino-rat (Sprague-Dawley):
Relying on the modification of the method of Morsdorf et al (Arch. int. Pharmacodyn. Volume 192, pages 111-127 (1971)) male rats received subplantarly in the right hind paw an injection of a 1% carrageenin solution (Carrageenin, Type IV, Sigma C-3889). One hour and four hours later there was determined the volume of the paw. To measure the volume there was used a volume meter (Rhema-Labortechnik Company, D-6238 Hofheim, Type 2060). Directly after the first measurement the test substance was dispensed by means of a gullet stomach catheter. There was calculated the increase in the swelling of the paw in the second measurement compared to the first measurement in absolute values (ml). The evaluation included the determination of the percent average value of the difference of the edema volumes one and four hours after receiving the inflammatory solution. The edema inhibiting action was calculated in percent from the edema volume measured by water displacement in comparison to the edema volume of the untreated inflammed control group.
As the single change in comparison to the Carrageenin-Edema Test in place of Carrageenin there was injected subplantarly Bradykinin (Sigma B 3259) 0.01 mg/animal in 0.1 ml of a 0.9% sodium chloride solution.

The conditions of series [4]: antiphlogistic alone, per os, mouse; cited from earlier work.
The mark [5] stands for this setting: Mus musculus, po, read-out: Activity in %.
[6] abbreviates: Mus musculus, po, per os, read-out: ED50.
[7] abbreviates: Mus musculus, po, alone, 4.0 mg/kg per os, read-out: Activity in %.

The structures appear in SMILES notation. Where a name gives a salt, the structure may show the parent alone. Read-outs that look alike come from different tables or passages of the source.

Consider `COc1ccc2c(c1)c(CC(=O)N[C@@H](C=O)[C@@H](O)[C@H](O)[C@H](O)CO)c(C)n2C(=O)c1ccc(Cl)cc1` [Glucametacin], for which the “factor for the increase in activity of the analgetic action in combination with Flupirtin” value (from here on “factor for the increase in activity”) in series [1] is listed as 2-15.

As a reminder, the ED50 is the dose that gives a 50% effect, or the effect in half of the subjects. `CCOC(=O)Nc1ccc(NCc2ccc(F)cc2)nc1N` [Flupirtin (Gluconate)]: it took a dose of 43.9 mg/kg to reach the 50% effect level in series [1] (Mus musculus, po, per os) (ED50). For the same compound, in series [1] (setting [5]), the inhibition in vivo at 0.56 mg/kg is 19.2%, the inhibition in vivo at 1.12 mg/kg was 28%, the inhibition in vivo at 2.24 mg/kg came to 37.6% and the inhibition in vivo at 4.47 mg/kg stood at 46.4%. Also, in series [1] (setting [5]), the inhibition in vivo at 8.93 mg/kg came out at 38.4%, the inhibition in vivo at 17.85 mg/kg was determined as 22.4% and the inhibition in vivo at 35.7 mg/kg was found to be 61.6%.

On to `CCOC(=O)Nc1ccc(NCc2ccc(F)cc2)nc1N` [Flupirtin (Hydrochloride)], for which the ED50 in series [2] was 30.9 mg/kg; in series [3] (per os, printed in words: no ED50 defineable) it was “no ED50”. Besides, the Activity in % is -8.3% in series [2] (alone, 10.0 mg/kg per os); 23.2% in series [2] (alone, 20.0 mg/kg per os); 45.8% in series [2] (alone, 30.0 mg/kg per os); 67.5% in series [2] (alone, 40.0 mg/kg per os). Besides, the “Activity in % (- = inhibiting)” value in series [3] (5.0 mg/kg per os) is listed as “+4.6%”; in series [3] (10.0 mg/kg per os) it was -25.0%; in series [3] (20.0 mg/kg per os) it was -13.6%; in series [3] (30.0 mg/kg per os) it was -2.3%.

As for `Cc1cc(NC(=O)C2=C(O)c3ccccc3S(=O)(=O)N2C)no1` [Isoxicam], the ED50 in series [1] (setting [6]) turned out to be 6.6 mg/kg. In series [1] (Mus musculus, po, alone), this compound registered an inhibition in vivo at 3 mg/kg of 10.1%, an inhibition in vivo at 5 mg/kg of 36.7%, an inhibition in vivo at 6 mg/kg of 46% and an inhibition in vivo at 10 mg/kg of 66.2%. In series [1] (setting [7]), the inhibition in vivo at 4 mg/kg is 30.2%. Moreover, the inhibition in vivo at 7 mg/kg in series [1] (Mus musculus, po, alone, 7.0 mg/kg per os) came out at 51.1%. Further, in series [1] (Mus musculus, po, alone, 8.0 mg/kg per os, read-out: Activity in %), the inhibition in vivo at 8 mg/kg is 62.6%. Moreover, in series [1], the “factor for the increase in activity” value is 2-15.

As a reminder, the LD50 is the dose at which mortality reaches 50%. For `COc1ccc2c(c1)c(CC(=O)O)c(C)n2C(=O)c1ccc(Cl)cc1` [Indometacin], the ED50 is 2.77 mg/kg in series [2] (alone, per os, 30 minutes after giving, linear regression, read-out: ED50) and 4.3 mg/kg in series [1] (Mus musculus, po, per os). Further, the Activity in % in series [2] (alone, 1.0 mg/kg per os) is recorded as 12.3%; in series [2] (alone, 2.0 mg/kg per os), 22.05%; in series [2] (alone, 4.0 mg/kg per os), 58.97%; in series [2] (alone, 8.0 mg/kg per os) it was 114.87%; in series [2] (alone, 16.0 mg/kg per os), 127.18%. Moreover, in series [1] (setting [5]), the inhibition in vivo at 2 mg/kg stood at 17.3%. For the same compound, the inhibition in vivo at 4 mg/kg in series [1] (setting [5]) is 50%. Besides, the inhibition in vivo at 8 mg/kg in series [1] (setting [5]) was 86.3%. For the same compound, the inhibition in vivo at 16 mg/kg in series [1] (setting [5]) was 82.1%. Besides, in series [1], the “factor for the increase in activity” value is 2-15. For the same compound, the LD50 in series [4] is recorded as 21 mg/kg.

`CC(=O)Oc1ccccc1C(=O)O` [Acetylsalicylic Acid, acetylsalicylic acid]: the 50% effect level in series [1] (Mus musculus, po, per os) (ED50) was put at a dose of 149 mg/kg. In addition, in series [1] (setting [5]), the inhibition in vivo at 25 mg/kg stood at 11%, the inhibition in vivo at 50 mg/kg worked out at 30.1%, the inhibition in vivo at 75 mg/kg is 39% and the inhibition in vivo at 100 mg/kg amounted to 41.1%. Moreover, in series [1] (setting [5]), the inhibition in vivo at 150 mg/kg is 43.2%, the inhibition in vivo at 200 mg/kg came to 59.6% and the inhibition in vivo at 400 mg/kg came out at 71.2%. The “factor for the increase in activity” value in series [1] is reported as 2-15. In series [4], the LD50 was 815 mg/kg.

Consider `CC1=C(CC(=O)O)c2cc(F)ccc2/C1=C\c1ccc([S+](C)[O-])cc1` (stereo not shown) [Sulindac], for which the ED50 in series [1] (setting [6]) turned out to be 2.3 mg/kg. Moreover, in series [1] (setting [5]), the inhibition in vivo at 0.47 mg/kg worked out at 29.6%, the inhibition in vivo at 0.94 mg/kg stood at 44.6%, the inhibition in vivo at 1.88 mg/kg is 49.7% and the inhibition in vivo at 3.75 mg/kg worked out at 56%. In series [1] (setting [5]), the inhibition in vivo at 7.5 mg/kg came out at 61%, the inhibition in vivo at 15 mg/kg came out at 71.1% and the inhibition in vivo at 30 mg/kg came to 72.3%. Moreover, the “factor for the increase in activity” value in series [1] is listed as 2-15.

With `CN1C(C(=O)Nc2ccccn2)=C(O)c2ccccc2S1(=O)=O` [Piroxicam], the ED50 in series [1] (setting [6]) amounted to 3.46 mg/kg. In addition, the inhibition in vivo at 1 mg/kg in series [1] (Mus musculus, po, alone, 1.0 mg/kg per os) stood at 38.2%. Further, in series [1] (Mus musculus, po, alone), the inhibition in vivo at 3 mg/kg was 40%, the inhibition in vivo at 5 mg/kg amounted to 61.8% and the inhibition in vivo at 10 mg/kg came out at 70.9%. The inhibition in vivo at 4 mg/kg in series [1] (setting [7]) stood at 53.6%. This compound had an inhibition in vivo at 20 mg/kg in series [1] (Mus musculus, po, alone, 20.0 mg/kg per os) of 49.1%. Also, the “factor for the increase in activity” value in series [1] was 2-15. The LD50 in series [4] is recorded as 350 mg/kg.

On to `CCOC(=O)Nc1ccc(NCc2ccc(F)cc2)nc1N` [Flupirtin, 2-amino-3-carbethoxyamino-6-(fluoro-benzylamino)-pyridine], for which the ED50 in series [1] (setting [6]) came to 44 mg/kg. Also, the minimal effective dose in series [1] (Mus musculus, po, alone, per os, read-out: lowest analgetically effective dosage) amounted to 2.24 mg/kg.

Take `COc1ccc2cc([C@H](C)C(=O)O)ccc2c1` [Naproxen]: the inhibition in vivo at 0.38 mg/kg in series [1] (Mus musculus, po, alone, 0.38 mg/kg per os) worked out at 21.7%. In series [1] (Mus musculus, po, alone, 0.75 mg/kg per os), the inhibition in vivo at 0.75 mg/kg is 42%. For the same compound, the inhibition in vivo at 1.5 mg/kg in series [1] (Mus musculus, po, alone, 1.5 mg/kg per os) worked out at 43.4%. For the same compound, in series [1] (Mus musculus, po, alone), the inhibition in vivo at 3 mg/kg turned out to be 53.8% and the inhibition in vivo at 6 mg/kg came to 70%. The compound further had an inhibition in vivo at 12 mg/kg in series [1] (Mus musculus, po, alone, 12.0 mg/kg per os) of 74.1%. The compound further yielded an inhibition in vivo at 24 mg/kg in series [1] (Mus musculus, po, alone, 24.0 mg/kg per os) of 54.5%. In series [1], the “factor for the increase in activity” value is recorded as 2-15.
